Reference: US7794753B2, “Synergistic hepatoprotective composition and a method thereof” (Council of Scientific and Industrial Research, priority 2003, dated 2010)

Key:
[1] = tested on: restinosis following Angio plasty; conditions: animal model, compared with fish oil; cited from earlier work
[2] = After 72 hrs, mostly by urinary excretion; cited from earlier work
[3] = tested on: Paracetamol (APAP) induced hepatic injury; format: in vivo; conditions: prophylactic
Experimental: […] Formulation is extremely safe having a therapeutic index of >40. No mortality was recorded up to a dose of 2 g-kg-1 p.o. in mice.

[4] = tested on: paracetamol (APAP) induced hepatic injury; assay: Hepatoprotective activity (in vivo) of synergistic formulation and Silymarin against paracetamol (APAP) induced hepatic injury in mice (prophylactic study); conditions: 50 mg/kg p.o. + APAP
Experimental: All the list materials were administered P.O. routes in a uniform dose level of 50 mg kg-1. Formulation is extremely safe having a therapeutic index of >40. No mortality was recorded up to a dose of 2 g-kg-1 p.o. in mice.

[5] = tested on: Acetaminophen (APAP) induced hepatic injury; assay: Hepatoprotective activity (in vivo) of TCA and silymarin (Pre-treatment), diethyl-ether plus Acetaminophen (APAP) (prophylactic study); parameters: species or system Mice: Swiss albino; conditions: 50 mg/kg p.o. fed at 72 h, 48 h, 24 h, 1 h before diethyl-ether and 1 h after APAP 200 mg/kg i.p.

| Compound | preventing the incidence and severity of restinosis following Angio plasty [1] | excreted [2] [%] | Hepatic GSH (glutathione) ([3]; 50 mg kg−1 + APAP) [μmole GSH/g liver] | Serum TG, percent hepatoprotective activity (in parentheses) ([3]; 100 mg kg−1 + APAP) | S. Albumin, percent hepatoprotective activity [4] [%] | Serum Bilirubin, percent hepatoprotective activity [5] [%] |
| --- | --- | --- | --- | --- | --- | --- |
| C=C1CC[C@@H]2[C@](C)(CO)[C@H](O)CC[C@@]2(C)[C@@H]1C/C=C1/C(=O)OC[C@H]1O [AP, andrographolide] | twice as effective as fish oil | ~90 | 4.48 ± 0.25 | (63.00) % |  |  |
| CCCCCCCC/C=C/CCCCCCCCCCCCCC(=O)O [TCA, trans-tetracos-15-enoic acid] |  |  |  |  | 56.35 | 56.35 |
